Experimental findings from patent publication US20250059191A1, “CRYSTALLINE FORMS OF DIAZABICYCLOOCTANE DERIVATIVE AND PRODUCTION PROCESS THEREOF” (MEIJI SEIKA PHARMA CO., LTD., priority 2013, published 2025) are described below.

Common to all, as to assay type: physicochemical
A short description of data set [1]: Stability test of amorphous form and crystalline forms I-IV, 40° C./75% RH, airtight container. As for the experimental part:
Crystalline form III of Example 7a were dissolved in water and subjected to lyophilisation to afford (2S,5R)-N-(2-aminoethoxy)-7-oxo-6-(sulfooxy)-1,6-diazabicyclo[3.2.1]octane-2-carboxamide (VII-1) in an amorphous form. The compounds in an amorphous form and crystalline forms I-IV of Examples 5-8 were each weighed in a screw bottle, and stability tests were conducted at each of the temperatures and humidity conditions. The methods of measurement of related substances, content measurement, and water content measurement were as follows.
Samples were dissolved in water, and these solutions were used as sample solutions. The sample solutions each in the amount of 5 μL were tested under the following conditions by JP16, Liquid Chromatography <2.01>to obtain the amount of each related substance (%) and the total amount of related substances (%), and the content.
• Column: Waters Atlantis dc18, 5 μm, 4.6×250 mm • Column temperature: a constant temperature of about 35° C. • Injected amount: 5 μL • Detector: an ultraviolet absorption photometer (wavelength: 210 nm) • Mobile phase A: 1.32 g of diammonium hydrogenphosphate was dissolved in 900 mL of water, and phosphoric acid was added to adjust the pH to 3.0. To this was then added water to make 1000 mL. • Mobile phase B: Acetonitrile for liquid chromatography • Gradient program: The mixing ratio of mobile phase A to mobile phase B was controlled as the following time program.
About 20 mg of the product was precisely measured and tested by JP16, Water Determination <2.48>Coulometric titration.

Data set [2] is described as follows: Solubility in aqueous isopropanol solution. The text has this:
Crystalline forms I, II and III are distinguished by DSC, solubility in aqueous isopropanol, and lattice spacing in powder X-ray diffraction patterns. […]

Data set [3] is described as follows: Experiment on crystal transformation (powder X-ray diffraction after stirring suspension or storage). As for the experimental part: Crystal transformation in the polymorphism of the compound represented by Formula (VII-1) obtained in the present invention are not observed in a stability test carried out at 40° C. in the solid state or in stirring the suspension in a hydrous solvent for a long time. When crystalline form III of the compound represented by Formula (VII-1) was subjected to an XRD-DSC experiment, heated to 160° C. at 60% RH, and then allowed to cool on standing to 63° C., the crystalline form changed to anhydrous crystalline form over about 145° C., and then returned to the crystalline form III below about 90° C. after cooling. On the basis of these findings, a crystalline form of a compound represented by Formula (VII-1), particularly the crystalline form III constitutes a stable form under ordinary conditions.
A small amount of a suspension of the crystals of Example 6a was taken and stirred at room temperature for one day. The precipitated crystals were collected and subjected to powder X-ray crystal diffraction.
In the step of Example 7a, a small amount was taken out of the suspension immediately after the seeding and of the suspension after the dropwise addition of isopropanol, and each of the taken-out portions was stirred with a stirring bar at room temperature for one day and four days. The precipitated crystals were collected and subjected to powder X-ray crystals diffraction.
Crystalline form IV of Examples 8a-c was taken and isopropanol/water (6/1) was added thereto and suspended and stirred at 25° C. or 40° C. for one week. Samples were taken after 12 hours, 24 hours (one day), 48 hours (two days), 72 hours (three days), 96 hours (four days) and 168 hours (one week), and subjected to powder X-ray crystal diffraction after through-flow drying.

Consider `NCCONC(=O)[C@@H]1CC[C@@H]2CN1C(=O)N2OS(=O)(=O)O` [Crystalline form II, (2S,5R)-N-(2-aminoethoxy)-7-oxo-6-(sulfooxy)-1,6-diazabicyclo[3.2.1]octane-2-carboxamide], for which the Content turned out to be 99.8% in data set [1] (1 month); 99.8% in data set [1] (1 month, listed as Form II); 99.3% in data set [1] (3 months); 99.3% in data set [1] (3 months, listed as Form II); 99.8% in data set [1] (at start); 99.8% in data set [1] (at start, listed as Form II). For the same molecule, the “Total amount of related substances” value in data set [1] (1 month) was 0.0%; in data set [1] (1 month, listed as Form II) it was 0.0%; in data set [1] (3 months) it was 0.5%; in data set [1] (3 months, listed as Form II), 0.5%; in data set [1] (at start) it was 0.1%; in data set [1] (at start, listed as Form II), 0.1%. Besides, the Water content in data set [1] (1 month) is reported as 5.6%; in data set [1] (1 month, listed as Form II), 5.6%; in data set [1] (3 months), 5.9%; in data set [1] (3 months, listed as Form II) it was 5.9%; in data set [1] (at start) it was 5.7%; in data set [1] (at start, listed as Form II) it was 5.7%. For the same molecule, the “Solubility in an aqueous 60% isopropanol solution” value in data set [2] (10° C.) amounted to 0.67%; in data set [2] (20° C.), 0.74%. Also, in data set [3] (suspension of the crystals stirred at room temperature for one day, powder X-ray diffraction), the “Crystal transformation to a different crystal form” value is listed as “No crystal transformation to a different crystal form was observed”.
Turning to `NCCONC(=O)[C@@H]1CC[C@@H]2CN1C(=O)N2OS(=O)(=O)O` [Crystalline form I, (2S,5R)-N-(2-aminoethoxy)-7-oxo-6-(sulfooxy)-1,6-diazabicyclo[3.2.1]octane-2-carboxamide], the Content was 99.9% in data set [1] (1 month); 99.9% in data set [1] (1 month, listed as Form I); 99.8% in data set [1] (3 months); 99.8% in data set [1] (3 months, listed as Form I); 99.9% in data set [1] (at start); 99.9% in data set [1] (at start, listed as Form I). In addition, the “Total amount of related substances” value in data set [1] (1 month) stood at 0.0%; in data set [1] (1 month, listed as Form I), 0.0%; in data set [1] (3 months), 0.1%; in data set [1] (3 months, listed as Form I), 0.1%; in data set [1] (at start), 0.1%; in data set [1] (at start, listed as Form I) it was 0.1%. Also, the Water content in data set [1] (1 month) was determined as 5.4%; in data set [1] (1 month, listed as Form I), 5.4%; in data set [1] (3 months), 5.6%; in data set [1] (3 months, listed as Form I), 5.6%; in data set [1] (at start), 5.4%; in data set [1] (at start, listed as Form I), 5.4%. In data set [2], the “Solubility in aqueous isopropanol, comparison of crystalline forms I, II and III” value was “lowest solubility”. For the same molecule, the “Solubility in an aqueous 60% isopropanol solution” value in data set [2] (10° C.) worked out at 0.44%; in data set [2] (20° C.), 0.48%.
`NCCONC(=O)[C@@H]1CC[C@@H]2CN1C(=O)N2OS(=O)(=O)O` [Crystalline form IV, (2S,5R)-N-(2-aminoethoxy)-7-oxo-6-(sulfooxy)-1,6-diazabicyclo[3.2.1]octane-2-carboxamide]: the Content in data set [1] (1 month) is on record as 99.8%; in data set [1] (1 month, listed as Form IV), 99.8%; in data set [1] (at start) it was 99.9%; in data set [1] (at start, listed as Form IV) it was 99.9%. Further, the “Total amount of related substances” value amounted to 0.0% in data set [1] (1 month); 0.0% in data set [1] (1 month, listed as Form IV); 0.0% in data set [1] (at start); 0.0% in data set [1] (at start, listed as Form IV). In addition, the Water content came out at 0.1% in data set [1] (1 month); 0.1% in data set [1] (1 month, listed as Form IV); 0.1% in data set [1] (at start); 0.1% in data set [1] (at start, listed as Form IV). In addition, in data set [3] (suspended in isopropanol/water (6/1), stirred at 25° C. or 40° C., 12 hours to one week), the “Crystal transformation to a different crystal form” value is reported as “No crystal transformation to a different crystal form was observed”.
As for `NCCONC(=O)[C@@H]1CC[C@@H]2CN1C(=O)N2OS(=O)(=O)O` [Amorphous form, (2S,5R)-N-(2-aminoethoxy)-7-oxo-6-(sulfooxy)-1,6-diazabicyclo[3.2.1]octane-2-carboxamide], the figures for the Content in data set [1] (1 month), in data set [1] (3 months) and in data set [1] (at start) were 93.3%, 87.5% and 99.4%, respectively. Besides, the “Total amount of related substances” value is reported as 6.6% in data set [1] (1 month), 12.3% in data set [1] (3 months) and 0.5% in data set [1] (at start). Also, the Water content in data set [1] (1 month) came out at 3.3%; in data set [1] (3 months), 3.8%; in data set [1] (at start), 1.3%.
